Measured values as given in ChEMBL document CHEMBL6109138 (J Med Chem, 2025).
≈ marks a conversion by molar mass, not a printed value.

Tests used:
[1] = Protein binding in mouse plasma assessed as unbound fraction at 0.5 uM; type: ADME, cell-free
[2] = Metabolic stability in mouse liver microsomes assessed as half-life; type: ADME, Microsome
[3] = Metabolic stability in mouse liver microsomes assessed as intrinsic clearance measured per mg protein; type: ADME, Microsome; settings: read-out: CLH
U-87 MG [4] = experiment: Growth inhibition of human U-87 MG cells incubated for 48 hrs by SRB assay; type: functional, U-87MG ATCC
[5] = Kinetic solubility of compound pH 7.4; type: physicochemical; settings: buffer, read-out: Kinetic_solubility
[6] = Protein binding in human plasma assessed as unbound fraction at 0.5 uM; type: ADME, cell-free
U-251 [7] = experiment: Growth inhibition of human U-251MG cells incubated for 48 hrs by SRB assay; type: functional
T98G [8] = experiment: Antitumor activity against human T98G cells assessed as total growth inhibition incubated for 48 hrs by SRB assay; type: functional
[9] = Metabolic stability in mouse liver microsomes assessed as intrinsic clearance measured per gram liver; type: ADME, Microsome
D(2) dopamine receptor = D(2) dopamine receptor (Homo sapiens, UniProt P14416); experiment: Displacement of [3H]N-methylspiperone from human D2L receptor extracted from HEK293 cell membrane assessed as inhibition constant incubated for 1 hrs by radioligand competitive binding based scintillation counter analysis; type: cell membranes
Sequence of D(2) dopamine receptor (P14416 whole entry): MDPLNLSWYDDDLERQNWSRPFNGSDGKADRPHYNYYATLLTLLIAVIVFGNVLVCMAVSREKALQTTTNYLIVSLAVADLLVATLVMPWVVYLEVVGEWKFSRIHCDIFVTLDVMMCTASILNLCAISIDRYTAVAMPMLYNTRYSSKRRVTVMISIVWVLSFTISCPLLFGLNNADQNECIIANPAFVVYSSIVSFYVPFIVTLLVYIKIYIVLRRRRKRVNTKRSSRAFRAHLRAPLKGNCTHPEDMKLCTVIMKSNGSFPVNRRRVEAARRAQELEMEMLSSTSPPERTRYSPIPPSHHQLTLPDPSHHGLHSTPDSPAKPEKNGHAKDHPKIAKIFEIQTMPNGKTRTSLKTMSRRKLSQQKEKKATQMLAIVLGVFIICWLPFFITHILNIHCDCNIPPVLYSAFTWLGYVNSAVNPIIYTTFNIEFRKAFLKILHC

T98G [10] = experiment: Antitumor activity against human T98G cells assessed as lethal concentration incubated for 48 hrs by SRB assay; type: functional
T98G [11] = experiment: Growth inhibition of human T98G cells incubated for 48 hrs by SRB assay; type: functional
U-251 [12] = experiment: Antitumor activity against human U-251MG cells assessed as lethal concentration incubated for 48 hrs by SRB assay; type: functional; settings: read-out: LC50 (the source's name)
[13] = Metabolic stability in human liver microsomes assessed as half-life; type: ADME, Microsome
U-87 MG [14] = experiment: Antitumor activity against human U-87 MG cells assessed as lethal concentration incubated for 48 hrs by SRB assay; type: functional, U-87MG ATCC
[15] = Metabolic stability in human liver microsomes assessed as intrinsic clearance measured per gram liver; type: ADME, Microsome
U-87 MG [16] = experiment: Antitumor activity against human U-87 MG cells assessed as total growth inhibition incubated for 48 hrs by SRB assay; type: functional, U-87MG ATCC
[17] = Metabolic stability in human liver microsomes assessed as intrinsic clearance measured per mg protein; type: ADME, Microsome; settings: read-out: CLH
U-251 [18] = experiment: Antitumor activity against human U-251MG cells assessed as total growth inhibition incubated for 48 hrs by SRB assay; type: functional
[19] = Apparent passive permeability across apical to basolateral side in MDCKII-MDR1 cells; type: ADME, cell-based, Canis lupus familiaris; settings: dog, MDCK-MDR1
[20] = Apparent passive permeability across basolateral to apical side in MDCKII-MDR1 cells; type: ADME, cell-based, Canis lupus familiaris; settings: dog, MDCK-MDR1
[21] = biological target: T1, D(4) dopamine receptor (Homo sapiens) (UniProt P21917); experiment: Partial agonist activity at D4 receptor (unknown origin) assessed as bias factor by beta-arrestin recruitment assay versus Gi activation assay; type: functional; settings: filed as partial agonist
T1 sequence (whole entry): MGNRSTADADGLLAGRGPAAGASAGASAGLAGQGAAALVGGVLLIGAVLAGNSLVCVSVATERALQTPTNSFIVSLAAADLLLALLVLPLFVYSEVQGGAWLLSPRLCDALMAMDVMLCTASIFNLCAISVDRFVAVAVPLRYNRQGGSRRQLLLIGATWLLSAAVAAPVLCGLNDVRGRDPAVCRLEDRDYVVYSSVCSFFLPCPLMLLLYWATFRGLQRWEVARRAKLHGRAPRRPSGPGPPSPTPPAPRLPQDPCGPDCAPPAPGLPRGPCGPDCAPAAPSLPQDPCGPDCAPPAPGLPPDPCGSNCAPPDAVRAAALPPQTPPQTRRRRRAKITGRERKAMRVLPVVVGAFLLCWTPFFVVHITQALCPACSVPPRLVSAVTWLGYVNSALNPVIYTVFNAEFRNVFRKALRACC

[22] = biological target: T1, D(4) dopamine receptor (Homo sapiens); experiment: Partial agonist activity at D4 receptor (unknown origin) assessed as bias factor by Gi activation assay versus beta-arrestin recruitment assay; type: functional; settings: filed as partial agonist

Row | Compound | Ki (D(2) dopamine receptor) | GI50 (U-87 MG [4]) | GI50 (U-251 [7]) | TGI (T98G [8]) | GI50 (T98G [11]) | CC50 (U-251 [12]) | TGI (U-87 MG [16]) | TGI (U-251 [18]) | other results
1 | O=C1CCc2ccccc2N1CCCN1CCN(c2cccc3ccccc23)CC1 | 0.0288 µM | 19.5 µM | 22.6 µM | 32.1 µM | 12.2 µM | 78.7 µM | 39.5 µM | 36.6 µM | fraction unbound at 0.5 µM [1]: 0.48; half-life [2]: 4.81 min; microsomal CLint [3]: 288 µL/min/mg; solubility kinetic [5]: 112 µM (≈ 44.7 µg/mL); fraction unbound at 0.5 µM [6]: 0.23; scaled CLint [9]: 13 mL/min/g; LC50 (lethal concentration 50%) (T98G [10]): 71 µM; half-life [13]: 9.58 min; LC50 (U-87 MG [14]): 80 µM; scaled CLint [15]: 5.78 mL/min/g; microsomal CLint [17]: 145 µL/min/mg; Papp A→B [19]: 1.84 ×10⁻⁶ cm/s; Papp B→A [20]: 3.47 ×10⁻⁶ cm/s
2 | Cc1ccc2nc(CNCCCOc3ccccc3)cc(O)c2c1 | – | – | – | – | – | – | – | – | Activity [21]: 7.4
3 | O=C1CCc2ccccc2N1CCCN1CCN(c2ccc(C(F)(F)F)cc2)CC1 | 29.5 µM | – | – | – | – | – | – | – | –
4 | O=C1CCc2ccccc2N1CCCN1CCN(c2ccc3ccccc3c2)CC1 | 6.17 µM | 25.7 µM | 26.5 µM | 42.1 µM | 20 µM | 201 µM | 55.2 µM | 63.2 µM | fraction unbound at 0.5 µM [1]: 0.71; half-life [2]: 6.86 min; microsomal CLint [3]: 202 µL/min/mg; solubility kinetic [5]: 163 µM (≈ 65.1 µg/mL); fraction unbound at 0.5 µM [6]: 0.41; scaled CLint [9]: 9.09 mL/min/g; LC50 (lethal concentration 50%) (T98G [10]): 96.7 µM; half-life [13]: 18.8 min; LC50 (U-87 MG [14]): 118 µM; scaled CLint [15]: 2.95 mL/min/g; microsomal CLint [17]: 73.8 µL/min/mg; Papp A→B [19]: 1.77 ×10⁻⁶ cm/s; Papp B→A [20]: 2.06 ×10⁻⁶ cm/s
5 | Cn1nnc2c(C(N)=O)ncn2c1=O [TEMOZOLOMIDE] | – | > 200 µM | > 200 µM | > 200 µM | > 200 µM | > 200 µM | > 200 µM | > 200 µM | –
6 | O=C1CCc2ccccc2N1CCCN1CCN(c2ccc(Cl)cc2)CC1 | – | 42.6 µM | 61.6 µM | 66.1 µM | 21.9 µM | 182 µM | 102 µM | 104 µM | LC50 (lethal concentration 50%) (T98G [10]): 200 µM; LC50 (U-87 MG [14]): 245 µM
7 | O=C1CCc2ccccc2N1CCCN1CCN(c2ccccc2-c2ccccc2)CC1 | 0.0759 µM | – | – | – | – | – | – | – | –
8 | CC(C)N1C[C@H](NC(=O)N2Cc3ccccc3[C@@H]2C)[C@@H](C)C1 | – | – | – | – | – | – | – | – | Activity [22]: 17

The next lines start with results.

Row | Ki (D(2) dopamine receptor) | Compound | GI50 (U-87 MG [4]) | GI50 (U-251 [7]) | TGI (T98G [8]) | GI50 (T98G [11]) | CC50 (U-251 [12]) | TGI (U-87 MG [16]) | TGI (U-251 [18]) | other results
9 | 4.07 µM | O=C1CCc2ccccc2N1CCCN1CCN(c2ccc(F)cc2)CC1 | – | – | – | – | – | – | – | –
10 | 3.16 µM | O=C1CCc2ccccc2N1CCCN1CCN(c2ccc(Br)cc2)CC1 | – | – | – | – | – | – | – | –
11 | 25.1 µM | O=C1CCc2ccccc2N1CCCN1CCN(C2CCCCC2)CC1 | – | – | – | – | – | – | – | –
12 | 3.24 µM | O=C1CCc2ccccc2N1CCCN1CCN(c2ccc(I)cc2)CC1 | – | – | – | – | – | – | – | –
13 | 46.8 µM | COC(=O)c1ccc(N2CCN(CCCN3C(=O)CCc4ccccc43)CC2)cc1 | – | – | – | – | – | – | – | –
